# Literature values, collected in patent publication US11000479B2, “Injectable long-acting naltrexone microparticle compositions” (Chong Kun Dang Pharmaceutical Corp., priority 2018, dated 2021).
# Key:
# [1] = test system: morphine induced analgesia; conditions: rat model, hot-plate test
# [2] = test system: heroin/diamorphine effects
smiles,measurement,setting,value
O=C1CC[C@@]2(O)[C@H]3Cc4ccc(O)c5c4[C@@]2(CCN3CC2CC2)[C@H]1O5 [naltrexone],plasma naltrexone concentration shown to be effective,[1],1 to 2 ng/mL
same,naltrexone level that completely antagonized heroin,[2]; 25 mg of heroin (Verebey et al. 1976),2.4 ng/mL
same,levels targeted as sufficient to offer protection from fatal opioid overdose,"[2]; Hulse et al. 2005, Comer et al. 2002",1 to 2 ng/mL
same,serum naltrexone level sufficient to block pure diamorphine,"[2]; doses as high as 500 mg diamorphine, two patients (Brewer 2002)",2.8 ng/mL
